Results: patent publication US9034574B2, “Agents for reversing epigenetic silencing of genes” (The Johns Hopkins University, priority 2006, dated 2015)
Where two headings read alike, the source gives them in different places.

Legend:
recombinant DNMT1 = recombinant DNMT1 (Homo sapiens (Human), UniProt P26358); assay: DNA methyltransferase activity assay with recombinant DNMT1; assay type: biochemical; details: for DNMT1 Inhibition (IC50 in μM): recombinant DNMT1
Source text: (§1) The outputs of these experiments were Ki's for each of the DNMT enzymes. When considered along with potency and efficacy data from the screening assays, the results of analyses of “lead” compounds for interference with MBD2 binding to ^5−m CpG-containing DNA, for direct binding to ^5−mCpG-containing DNA, and for inhibition of DNMTs allow prioritization of “lead” compounds. Ideally, “lead” compounds that activate expression from GSTP1 alleles with CpG island hypermethylation at sub-μM concentrations, target MBD2 directly, and fail to inhibit DNMTs, are high-priority “lead” compounds.
DNMT assays using recombinant DNMT1, DNMT3a, and DNMT3b. To produce recombinant DNMT1, full-length DNMT1 cDNA was amplified in two segments by RT-PCR from human brain poly A+ RNA (BD Clontech). Amplification of the upstream segment was performed using the PCR primers (5′-[…]-3′ (SEQ ID NO:4) and 5′-[…]-3′ (SEQ ID NO:5)), and amplification of the downstream segment was performed using the PCR primers (5′-[…]-3′ (SEQ ID NO:6) and 5′-[…]-3′ (SEQ ID NO:7)). The upstream and downstream segments were subcloned into the pCMVscript® vector (Stratagene), and assembled using an internal BstEII site that is common to both segments to create pCMVscript-DNMT1. PCR primers containing EcoRI and KpnI sites (5′-GAATTCCCGGCGCGTACCG-3′ (SEQ ID NO:8) and 5′-[…]-3′ (SEQ ID NO:9)) were used to amplify the DNMT1 coding sequence from pCMVscript-DNMT1. […] This pFB6H-DNMT1 construct was used to transform DH10Bac™ E. coli competent cells (Invitrogen) to generate a recombinant expression bacmid via site-specific transposition. The DNMT1 expression bacmid was transfected into Sf9 insect cells to produce recombinant DNMT1 baculovirus particles, which were subsequently used to infect additional Sf9 cells (1 MOI, 48 hours) for protein production. Recombinant His(6)-(SEQ ID NO:21)-DNMT1 was recovered by Ni2+ affinity chromatography. After lysis in 50 mM Na2HPO4 pH 7.6, 10 mM imidazole, 500 mM NaCl, 1% Igepal CA-630, 10% glycerol, and 1× Complete™ Protease Inhibitor (Roche) by two freeze-thaw cycles, His(6)-(SEQ ID NO:21)-DNMT1 was bound to Ni-NTA agarose (Qiagen) for 1.5 hours at 4° C. The supernatant was removed, and the beads were washed twice with 50 mM Na2HPO4 pH 7.6, 20 mM imidazole, 500 mM NaCl, 10% glycerol, and 1× Complete™ Protease Inhibitor to remove contaminating proteins. The beads were then washed twice with 50 mM Na2HPO4 pH 7.6, 10 mM NaCl, 10% glycerol, and 1× Complete™ Protease Inhibitor to remove excess salt. His(6)-(SEQ ID NO:21)-DNMT1 was eluted from the Ni-NTA agarose by adding 50 mM Na2HPO4 pH 7.6, 250 mM imidazole, 10 mM NaCl, 10% glycerol, and 1× Complete™ Protease Inhibitor. Spin dialysis was used to concentrate the protein and exchange the buffer 50 mM Na2HPO4 pH 7.6, 10 mM NaCl, 1 mM EDTA, 1 mM DTT, 20% glycerol, and 1× Complete™ Protease Inhibitor. Protein concentration was determined using the BCA assay (Pierce). Recombinant DNMT1 was stored at −80° C. until further use.
DNA methyltransferase activity assays were performed by combining 100 nM His(6)-(SEQ ID NO:21)-DNMT with 5′-biotinylated synthetic hemi-methylated or unmethylated oligonucleotide substrate containing 1 μM CG (Top Strand 5′-[…]-3′ (SEQ ID NO:18), Bottom Strand 5′-[…]-3′ (SEQ ID NO:19)) and 1 μM S-adenosyl-L-[methyl-^3H]Methionine™ (Amersham TRK581 60-85 Ci/mmol). After incubation at 37° C. for 30 minutes, reactions were stopped by adding one volume of 10 mM cold S-adenosyl-L-Methionine™ (Sigma). To purify the oligonucleotides, reactions will be added to a SAm^2® 96 Biotin Capture Plate (Promega). The plate was washed 7 times with PBS+2M NaCl and 3 times with dH20 to remove His(6)-(SEQ ID NO:21)-DNMT1 and S-adenosyl-L-methionine.

[1] = target: MeCP2_MBD binding to 5-mCpG containing DNA (Homo sapiens (Human), UniProt P51608); assay: DNA-protein binding assay, MeCP2_MBD to methylated oligonucleotide; details: His-tagged MeCP2_MBD, read-out: MeCP2 Binding Inhibition (IC50 in μM)
Method: (§2) To determine if the “lead” compounds directly interfere with MBD2 binding to ^5−m CpG containing DNA, each “lead” compound is tested for its ability to inhibit such binding using a DNA-protein binding assay. For this assay, a biotinylated and methylated oligonucleotide substrate is bound to a neutravidin-coated high binding capacity 96-well plate. His-tagged MBD2_MBD or MeCP2_MBD binds to the methylated oligonucleotide. An Anti-His-HRP conjugated antibody is used to detect bound protein. Introducing the “lead” compounds into the reaction mix at various concentrations provides a MBD2_MBD-DNA binding curve from which an IC50 is derived.
(§3) DNA binding assays using recombinant MBDs. […] After centrifugation in a microfuge, the soluble protein fraction, containing MBD2, was recovered. A similar approach was used for producing cloned recombinant MeCP2. […] After washing four times with binding buffer and drying wells, TMB is added to each well followed by 1 N HCl, and A450 is measured on a microplate reader. The IC50 for each “lead” compound is derived from the DNA-protein binding curve.

[2] = target: MBD2_MBD binding to 5-mCpG containing DNA (Homo sapiens (Human), UniProt Q9UBB5); assay: DNA-protein binding assay, MBD2_MBD to methylated oligonucleotide; details: His-tagged MBD2_MBD
Method: as §2, §3

ovarian ca = details: cited from earlier work
colon ca = details: cited from earlier work
lung ca = details: n 15, 200-600 mg/M^2 over 1 day iv; cited from earlier work
prostate ca = details: n 14, 225 mg/M^2 over 1 day iv; cited from earlier work
melanoma = details: cited from earlier work
recombinant DNMT3a = recombinant DNMT3a (Homo sapiens (Human), UniProt Q9Y6K1); assay: DNA methyltransferase activity assay with recombinant DNMT3a; assay type: biochemical; details: read-out: Ki for inhibition of DNMT3a
Source text: as §1
His(6)-(SEQ ID NO:21)-DNMT3a and His(6)-(SEQ ID NO:21)-DNM3b2 were expressed and purified in Sf9 cells as described above with the following modifications. […]
DNA methyltransferase activity assays were performed by combining 100 nM His(6)-(SEQ ID NO:21)-DNMT with 5′-biotinylated synthetic hemi-methylated or unmethylated oligonucleotide substrate containing 1 μM CG (Top Strand 5′-[…]-3′ (SEQ ID NO:18), Bottom Strand 5′-[…]-3′ (SEQ ID NO:19)) and 1 μM S-adenosyl-L-[methyl-^3H]Methionine™ (Amersham TRK581 60-85 Ci/mmol). […] After drying the plate, 30 μl Microscint-PS™ scintillation fluid (Packard) was added to each well, and tritium was quantitated using the TopCount™ NXT liquid scintillation counter (Packard). […]

mesothelioma = details: cited from earlier work
breast ca = details: cited from earlier work
[3] = n 4, 275-850 mg/M^2 over 10 days sq

Chain of MeCP2_MBD binding to 5-mCpG containing DNA (P51608 90-162): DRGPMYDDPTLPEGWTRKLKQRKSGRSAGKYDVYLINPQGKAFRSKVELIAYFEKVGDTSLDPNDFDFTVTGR
Chain of recombinant DNMT1 (P26358 whole entry): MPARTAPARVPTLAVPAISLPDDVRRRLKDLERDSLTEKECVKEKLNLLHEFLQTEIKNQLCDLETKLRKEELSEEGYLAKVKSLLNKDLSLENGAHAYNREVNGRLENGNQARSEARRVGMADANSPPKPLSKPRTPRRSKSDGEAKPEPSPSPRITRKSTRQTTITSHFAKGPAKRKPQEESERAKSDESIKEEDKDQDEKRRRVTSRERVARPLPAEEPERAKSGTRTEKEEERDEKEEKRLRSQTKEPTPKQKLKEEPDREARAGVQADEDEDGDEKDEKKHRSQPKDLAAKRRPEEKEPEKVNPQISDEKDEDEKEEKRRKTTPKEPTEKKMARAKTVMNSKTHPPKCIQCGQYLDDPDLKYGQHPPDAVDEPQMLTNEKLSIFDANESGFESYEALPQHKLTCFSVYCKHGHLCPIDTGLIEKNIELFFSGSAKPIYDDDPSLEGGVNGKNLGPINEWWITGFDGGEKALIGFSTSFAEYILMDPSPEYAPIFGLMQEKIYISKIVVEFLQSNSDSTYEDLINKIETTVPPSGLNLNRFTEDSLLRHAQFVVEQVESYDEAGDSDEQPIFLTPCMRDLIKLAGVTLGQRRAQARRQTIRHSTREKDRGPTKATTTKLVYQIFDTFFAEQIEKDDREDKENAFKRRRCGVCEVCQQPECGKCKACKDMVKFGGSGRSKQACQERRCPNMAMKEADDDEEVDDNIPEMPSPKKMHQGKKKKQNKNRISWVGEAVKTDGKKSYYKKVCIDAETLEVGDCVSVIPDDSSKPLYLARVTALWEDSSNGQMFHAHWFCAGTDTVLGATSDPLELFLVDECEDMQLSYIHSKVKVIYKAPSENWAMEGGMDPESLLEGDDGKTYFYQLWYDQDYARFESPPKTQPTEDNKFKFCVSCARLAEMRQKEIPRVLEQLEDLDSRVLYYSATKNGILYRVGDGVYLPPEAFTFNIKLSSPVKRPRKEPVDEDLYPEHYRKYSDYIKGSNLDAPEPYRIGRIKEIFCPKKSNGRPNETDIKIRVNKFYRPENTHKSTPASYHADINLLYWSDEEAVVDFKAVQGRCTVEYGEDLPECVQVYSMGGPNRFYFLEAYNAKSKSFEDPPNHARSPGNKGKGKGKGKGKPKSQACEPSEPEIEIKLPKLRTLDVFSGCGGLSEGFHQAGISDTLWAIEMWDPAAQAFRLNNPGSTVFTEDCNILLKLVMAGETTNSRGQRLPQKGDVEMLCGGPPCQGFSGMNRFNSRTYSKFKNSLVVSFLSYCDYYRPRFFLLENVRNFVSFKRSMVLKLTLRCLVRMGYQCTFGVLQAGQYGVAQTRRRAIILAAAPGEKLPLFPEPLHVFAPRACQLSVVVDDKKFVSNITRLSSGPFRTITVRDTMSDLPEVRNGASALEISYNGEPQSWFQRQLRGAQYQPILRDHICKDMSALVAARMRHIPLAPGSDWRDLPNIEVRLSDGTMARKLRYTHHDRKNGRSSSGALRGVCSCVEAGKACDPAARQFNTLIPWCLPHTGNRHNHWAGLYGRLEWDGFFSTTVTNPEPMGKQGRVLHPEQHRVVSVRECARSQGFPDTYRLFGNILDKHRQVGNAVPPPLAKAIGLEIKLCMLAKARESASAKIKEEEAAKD
Chain of recombinant DNMT3a (Q9Y6K1 whole entry, looked up): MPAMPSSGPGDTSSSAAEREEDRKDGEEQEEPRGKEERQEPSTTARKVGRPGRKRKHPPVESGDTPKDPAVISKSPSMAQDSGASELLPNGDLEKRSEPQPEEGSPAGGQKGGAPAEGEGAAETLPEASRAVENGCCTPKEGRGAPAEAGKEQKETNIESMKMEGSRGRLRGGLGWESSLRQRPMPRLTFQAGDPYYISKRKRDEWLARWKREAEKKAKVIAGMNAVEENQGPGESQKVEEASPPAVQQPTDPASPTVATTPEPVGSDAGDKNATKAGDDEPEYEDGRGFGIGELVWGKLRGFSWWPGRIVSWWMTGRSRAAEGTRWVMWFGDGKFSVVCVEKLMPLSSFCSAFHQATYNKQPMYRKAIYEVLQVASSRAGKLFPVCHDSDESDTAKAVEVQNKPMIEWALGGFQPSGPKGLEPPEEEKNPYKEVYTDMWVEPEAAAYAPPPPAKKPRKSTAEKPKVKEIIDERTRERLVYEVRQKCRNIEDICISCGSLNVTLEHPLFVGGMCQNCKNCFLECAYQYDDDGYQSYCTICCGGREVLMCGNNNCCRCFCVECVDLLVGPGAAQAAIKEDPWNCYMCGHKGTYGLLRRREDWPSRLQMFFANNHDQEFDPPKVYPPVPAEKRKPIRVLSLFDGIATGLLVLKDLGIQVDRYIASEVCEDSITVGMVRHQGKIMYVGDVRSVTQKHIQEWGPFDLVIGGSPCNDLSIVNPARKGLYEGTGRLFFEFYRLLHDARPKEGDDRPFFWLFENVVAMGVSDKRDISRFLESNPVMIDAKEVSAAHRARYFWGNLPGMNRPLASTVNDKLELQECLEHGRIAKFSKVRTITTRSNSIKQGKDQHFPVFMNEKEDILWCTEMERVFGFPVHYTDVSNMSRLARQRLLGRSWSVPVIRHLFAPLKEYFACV
Chain of MBD2_MBD binding to 5-mCpG containing DNA (Q9UBB5 145-213): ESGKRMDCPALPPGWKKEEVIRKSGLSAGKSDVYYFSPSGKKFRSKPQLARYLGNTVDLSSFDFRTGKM

| Compound | DNMT1 Inhibition (IC50 in μM) (recombinant DNMT1) | IC50 [1] [µM] | other results |
| --- | --- | --- | --- |
| COc1ccccc1-c1nc(-c2cccc([N+](=O)[O-])c2)no1 [(X)] | No Inhibition | > 200 |  |
| Cn1c2ccccc2n2cc(-c3ccc([N+](=O)[O-])cc3)nc12 [(III)] | No Inhibition | > 200 |  |
| OC1(C(F)(F)F)CC(c2ccccc2)=NN1C(=S)c1ccccc1 (stereo not drawn) [(XX)] | No Inhibition | > 200 |  |
| COc1ccc([N+](=O)[O-])cc1C1NN=C(c2ccccc2)S1 (stereo not drawn) [(XIX)] | No Inhibition |  | MBD2 Binding Inhibition (IC50 in μM) [2]: In- conclusive |
| COc1ccc(NC(=O)Nc2cccc3cccnc23)cc1 [(XXIV)] |  | 2.81 |  |
| Oc1cccc(Nc2nc(-c3ccccn3)cs2)c1 [(II)] | No Inhibition | > 200 |  |
| Nc1ncn([C@H]2C[C@H](O)[C@@H](CO)O2)c(=O)n1 [Compound 5-aza-dC, 5-aza-deoxycytidine] |  |  | % Response (ovarian ca; n 24, 225 mg/M^2 over 10 days iv): 8%; % Response (colon ca; n 42, 225 mg/M^2 over 1 day iv): 0%; % Response (lung ca): 20%; % Response (prostate ca): 16%; % Response (melanoma; n 18, 225 mg/M^2 over 1 day iv): 0% |
| CCN(CC)CCNC(=O)c1ccc(N)cc1 [procainamide, reference compound] |  |  | Ki (recombinant DNMT1; mixed mechanism, read-out: Ki for inhibition of DNMT1): 7.2 µM; Ki (recombinant DNMT3a): 1400 µM |
| Clc1ccc(C2NN=C(c3ccccc3)S2)cc1 (stereo not drawn) [(XXI)] | No Inhibition | 33.9 |  |
| NC1=NCN([C@@H]2O[C@H](CO)[C@@H](O)[C@H]2O)C(=O)N1 [dh-5-aza-C] |  |  | % Response (melanoma; n 40, 5 g/M^2 over 1 day cl): 20%; % Response (mesothelioma; n 29, 1500 mg/M^2 over 5 days cl): 17%; % Response (mesothelioma; n 41, 1500 mg/M^2 over 5 days cl): 17% |
| Oc1ccc2ccccc2c1C1NN=C(c2ccccc2)S1 (stereo not drawn) [(XXII)] | No Inhibition | 0.61 |  |
| COc1cc(O)cc(Br)c1/C=N/Nc1nc2ccccc2s1 [(XVIII)] | No Inhibition | > 200 |  |
| Nc1cccc(-c2nnc(-c3ccccc3)o2)c1 [(XXIII)] | No Inhibition | 8.59 |  |
| Oc1ccc(C2NN=C(c3ccccc3)S2)cc1 (stereo not drawn) [(XVII)] | No Inhibition | 16.9 |  |
| c1ccc(Nc2nc(-c3ccccn3)cs2)nc1 [(I)] |  | 10.5 |  |
| Nc1ncn([C@@H]2O[C@H](CO)[C@@H](O)[C@H]2O)c(=O)n1 [Compound 5-aza-C, 5-az-cytidine] |  |  | % Response (breast ca; 1.6 mg/kg over 10 days iv): 17%; % Response (breast ca; [3]): 25%; % Response (breast ca; n 11, 300-700 mg/M^2 over 8 days iv): 63%; % Response (breast ca; n 31, 600 mg/M^2 over 10 days iv): 6%; % Response (ovarian ca; [3]): 25%; % Response (colon ca; n 4, 275-850 mg/M^2 over 8 days sq): 0%; % Response (colon ca; n 6, 300-700 mg/M^2 over 10 days iv): 33%; % Response (colon ca; n 27, dose not given): 4%; % Response (melanoma; n 5, 300-700 mg/M^2 over 8 days iv): 40% |
| CCOc1ccc(Nc2nc(-c3ccccn3)cs2)cc1 [(XXV)] |  | > 200 |  |
